This note sets out measurements from patent US10092540B2, “Method of treatment of a mucopolysaccharidosis” (INVENTIVA, priority 2013, dated 2018).

For experiment [1], the system named is male C57B16/J mice. Kind of experiment: Liver total sulfated GAG levels in tilorone-induced mucopolysaccharidosis mouse model. In kind it is in vivo. Here is the method:
(§1) The effect of odiparcil on GAG storage was assessed in a model of mucopolysaccharidosis induced by Tilorone. Chronic administration of tilorone induces GAGs accumulation in various organs including liver, spleen, and kidney (Fischer et al. 1996, 315 (Pt 2):369-375; Prokopek 1991, 42:2187-2191). Tilorone (50 mg/kg/day) was administered via drinking water and odiparcil at 30 or 100 mg/kg/day (corresponding to 15 mg/kg and 50 mg/kg given bid, respectively) was given by oral gavage. Tilorone, odiparcil or vehicle were administered to male C57B16/J mice for 28 days.
At the end of the study period, animals were anesthetized and sacrificed. The liver of each animal was then collected, rinsed in physiological serum, blotted in absorbent paper and weighted. It was then cut in pieces and cooled by snap-freezing in liquid nitrogen before being stored at −80° C. The activity of odiparcil was assessed by quantifying total sulfated glycosaminoglycan (GAG) levels in the liver. Sulfated glycosaminoglycan concentration was measured using the Blyscan™ assay from Biocolor (UK) following the manufacturer's instructions. The data were statistically analyzed by one-way analysis of variance followed by a Tukey's test between all groups: ***: p<0.001 vs vehicle/vehicle, and $: p<0.05 vs tilorone/vehicle.

For experiment [2], the system named is male C57B16/J mice. Kind of experiment: Urinary sulfated GAG levels in tilorone-induced mucopolysaccharidosis mouse model. Format: in vivo. The method, then: as §1
After 21 days of treatment, urine were collected over a 24 hour period by placing the animal in diuresis/metabolic cages. The activity of odiparcil was assessed by quantifying total sulfated GAG levels in the collected urine. After a 10 to 20 fold dilution of the urine in water, sulfated glycosaminoglycan concentrations were measured using Blyscan™ assay from Biocolor (UK) following the manufacturer's instructions. Creatinine levels were also assessed on undiluted urine samples, using the CREATININE (Jaffé) kit (ref 981811) from ThermoFisher according to the manufacturer's instructions. Urinary sulfated GAG levels were normalized by creatinine levels. The data were analyzed statistically by one-way analysis of variance followed by a Tukey's test between all groups: ***: p<0.001 for vehicle/vehicle, and $$$: p<0.001 for tilorone/vehicle.

The subject of experiment [3] is Bovine aortic endothelial cells (ECACC 92010601). The experiment is described as follows: 35S-labeled GAG level in culture supernatant of bovine aortic endothelial cells. Format: cell-based. Here is the method: Bovine aortic endothelial cells (ECACC 92010601), cultured in 6-well plates, were incubated for 24 h in the presence of ^35S sodium sulfate (10 μci/ml) and of odiparcil solubilized in DMSO at various concentrations (1-10 μM; 0.1% final concentration of DMSO). The culture supernatants were recovered and the cell layers were rinsed with phosphate buffer (PBS). The culture supernatants and the rinsing solutions were combined in tubes. A solution of unlabeled dermatan sulfate (200 μg) was then added in order to serve as an entraining agent. The unincorporated ^35S was then removed by gel filtration on Sephadex G25 columns, the GAGs being eluted in the column exclusion fraction (V0). […] After centrifugation, the alcoholic precipitates were redissolved in 0.9% sodium chloride and then the radioactivity was measured on an aliquot fraction after addition of scintillation fluid in counting vials.
In order to type the GAGs produced in the supernatants from cells in culture, the redissolved alcoholic precipitates were treated with chondroitinase ABC (Proteus vulgaris) in a proportion of 0.5 mU/μL, for 3 h at 37° C. […] After centrifugation, the alcoholic precipitates were redissolved in 0.9% sodium chloride and then the radioactivity was measured on an aliquot fraction after addition of scintillation fluid in counting vials. […]

The test system of experiment [4] is GM00034B fibroblast cells, isolated from an MPS I patient. Kind of experiment: Intracellular chondroitin sulfate content (immunofluorescence) in fibroblasts from an MPS I patient. The settings on record: 72 h. Format: cell-based, human. Here is the method:
(§2) Human dermal fibroblasts (GM00034B fibroblast cells, isolated from an MPS I patient and GM00031 fibroblast cells, isolated from an unaffected donor) were obtained from the Coriell Institute for Medical Research. Cells were cultured in 96-well plates for 24 h. The culture medium was then replaced with culture medium containing or not containing (vehicle) odiparcil at various concentrations (0.03, 0.1, 0.3, 1, 3, or 10 μM), and then the cells were incubated for 72 h. After incubation, culture media were discarded and the cells were rinsed with PBS, then fixed in PFA 4%. A part of the wells was then incubated for 2 hours at 37° C. with an enzymatic solution of chondroitinase ABC (CSase). After 2 hours of digestion with CSase ABC buffers were discarded, then the cells were rinsed with PBS and permeabilized with PBS-Triton 0.1%. The cells were then labeled using a primary anti-chondroitin sulfate antibody.

The subject of a further experiment is New Zealand Rabbits. The experiment is described as follows: Plasma GAG level and disaccharide composition in rabbits after oral administration. Format: in vivo, rabbit. The settings on record: 400 mg/kg oral. Here is the method:
Odiparcil was administered Orally to New Zealand Rabbits at the Dose of 400 mg/kg. 4 h after the administration, the animals were anesthetized and blood samples were taken on citrate tubes after catherization of the carotid artery. After centrifugation, the plasma was removed and frozen. The plasma GAGs were isolated after digestion of the proteins with Pronase E, for 48 h at 50° C. The proteins and the protein residues were precipitated by adding trichloroacetic acid and incubated overnight at 4° C. After centrifugation, the supernatants were collected, and then dialyzed against 100 volumes of phosphate buffer, for 48 h at 4° C. A solution of cetylpyridinium chloride (0.1% final concentration) was added to the dialysates in order to precipitate the GAGs, for 24 h at ambient temperature. The samples were then centrifuged and the supernatant was removed. The precipitate obtained was redissolved in 2M sodium chloride and the GAGs were precipitated with 5 volumes of 95% ethanol. After centrifugation, the alcoholic precipitates were redissolved in 0.9% sodium chloride and desalified on a Sephadex G25 column (PD10).
The plasma GAGs extracted were quantified by assaying the uronic acid content, modified Bitter and Muir carbazole method. The qualitative analysis of the plasma GAG extracts was carried out by HPLC of the disaccharides obtained after enzymatic digestion with chrondroitinase ABC from Proteus vulgaris and chrondroitinase AC from Arthrobacter aurescens.

The test system of experiment [5] is GM00031 fibroblast cells, isolated from an unaffected donor. Kind of experiment: Intracellular chondroitin sulfate content (immunofluorescence) in control fibroblasts. In kind it is cell-based, human. The settings on record: 72 h. The method, then: as §2
Experiment [6] relates to GM00034B and GM01391 fibroblast cells, isolated from two MPS I patients. The experiment is described as follows: CS, DS and HS content by UPLC MSMS in MPS I fibroblasts. In kind it is cell-based, human. The settings on record: 10 μM, 72 h, FIG. 4. Here is the method: (§3) Human dermal fibroblasts (GM00034B and GM01391 fibroblast cells, isolated from two MPS I patients and GM03181 and GM00615 fibroblasts isolated from two MPS II patients) were obtained from the Coriell Institute for Medical Research. Cells were cultured in T25-flask for 24 h. The culture medium was then replaced with culture medium containing or not containing (vehicle) odiparcil at 10 μM, and then the cells were incubated for 72 h. After incubation, culture media were discarded and the cells were rinsed with PBS, then scrapped in PBS. Cells were then collected by centrifugation and cell pellets were frozen until further analysis. Quantitation of Heparan sulfate (HS), Dermatan sulfate (DS) and Chondroitin sulfate (CS) were performed using UPLC MSMS using a method adapted from method published in Zhang et al. 2015. Glycosaminoglycan values are expressed as mean+SD in μg GAG species per milligram protein.

Experiment [7] has as its system Normal human dermal fibroblasts (BIOAlternatives PF2). The experiment is described as follows: Total GAG synthesis (3H-glucosamine incorporation) by normal human dermal fibroblasts. Format: cell-based. The settings on record: 10 μM, 72 h. The method, then:
Normal human dermal fibroblasts (BIOAlternatives PF2) were cultured in 96-well plates for 24 h. The culture medium was then replaced with culture medium containing or not containing (control) odiparcil at various concentrations (1 μM, 3 μM, 10 μM) or the TGF-β reference at 10 ng/ml (positive control), and then the cells were incubated for 72 h with addition of the ^3H-glucosamine radioactive label for evaluating total GAG synthesis. At the end of the incubation, a chaotropic buffer was added to the wells of the culture plates in order to lyse the fibroblasts. The total GAGs of the cell lysates were then purified by ion exchange chromatography (Q-Sepharose column). The radioactivity incorporated into the anionic fractions was measured by liquid scintillation.

Experiment [8] relates to GM03181 and GM00615 fibroblasts isolated from two MPS II patients. The experiment is described as follows: CS, DS and HS content by UPLC MSMS in MPS II fibroblasts. Format: cell-based, human. The settings on record: 10 μM, 72 h, FIG. 4. Here is the method: as §3
Where [9] appears, read: tilorone 50 mg/kg/day via drinking water, vs vehicle/vehicle.

As for `CCN(CC)CCOc1ccc2c(c1)C(=O)c1cc(OCCN(CC)CC)ccc1-2` [Tilorone, reference compound], the “GAG levels in the liver” value in the experiment on male C57B16/J mice [1] (setting [9]) is reported as “increased”. The “GAG levels in urine” value with male C57B16/J mice [2] (setting [9]) is “increased”.
With `Cc1cc(=O)oc2cc(O[C@@H]3SC[C@@H](O)[C@H](O)[C@H]3O)ccc12` [Odiparcil, 4-methyl-2-oxo-2H-1-benzopyran-7-yl-5-thio-β-D-xylopyranoside], the “type of GAGs synthesized by the cells in culture (enzymatic digestions)” value in experiment [3] (chondroitinase ABC / heparinase II digestion) is given as “predominantly of chondroitin sulfate type”. The “level of 35S-labeled GAGs in the culture supernatant” value in [3] (odiparcil 1-10 μM, 24 h, FIG. 1) is on record as “increases, in a dose-dependent manner”. In addition, in experiment [4] (0.03-10 μM, FIG. 3), the “intracellular chondroitin sulfate (CS) content” value is on record as “inhibited, in a dose-dependent manner”. In experiment [4], the “IC50 for reduction of intracellular CS” value is “in the μM range” and the “extent of reduction of intracellular CS” value is reported as “complete reduction”. Moreover, in the experiment on New Zealand Rabbits (rabbit plasma GAGs, 4 h), the “Δdi-0S (%) nonsulfated disaccharides” value is 18.6%, the “Δdi-4S (%) 4-sulfated disaccharides” value is 26%, the “Δdi-4S DS (%) 4-sulfated disaccharides (dermatan sulfate component)” value is 20.5% and the “Δdi-6S (%) 6-sulfated disaccharides (galactosamine-6-sulfate component)” value stood at 30.8%. Further, the “Δdi-UA2S (%) 2UA-sulfated disaccharides” value with New Zealand Rabbits (rabbit plasma GAGs, 4 h) worked out at 4.1%. In addition, the “factor of increase of plasma GAG level compared with control animals” value with New Zealand Rabbits (rabbit, 4 h) is 5. In addition, the “μg UA/ml plasma (plasma GAG level via uronic acid content)” value in the experiment on New Zealand Rabbits (rabbit, 4 h after administration) worked out at 11.4 μg UA/ml. Moreover, the “statistical significance of effect on total GAG liver content vs tilorone/vehicle” value with male C57B16/J mice [1] (odiparcil 100 mg/kg/day, p<0.05) is recorded as “statistically significant”. The “tilorone-induced accumulation of liver total GAG levels” value in the experiment with male C57B16/J mice [1] (odiparcil 30 or 100 mg/kg/day oral gavage with tilorone, end of study, FIG. 6) is on record as “decreased”. For the same molecule, the “intracellular chondroitin sulfate (CS) content” value in [5] (0.03-10 μM, FIG. 3) was “inhibited, in a dose-dependent manner”. Also, in experiment [5], the “IC50 for reduction of intracellular CS” value is on record as “in the μM range” and the “extent of reduction of intracellular CS” value is reported as “complete reduction”. Further, in [6], the “chondroitin sulfate (CS) content” value was “inhibited”, the “dermatan sulfate (DS) content” value is given as “inhibited” and the “heparan sulfate (HS) content” value is “inhibited”. Also, in the experiment with male C57B16/J mice [2] (odiparcil 30 and 100 mg/kg/day, p<0.001), the “statistical significance of effect on urinary sulfated GAG levels vs tilorone/vehicle” value is “statistically significant at both tested doses”. In addition, in the experiment with male C57B16/J mice [2] (odiparcil 30 or 100 mg/kg/day oral gavage with tilorone, urine after 21 days, FIG. 5), the “sulfated GAG levels in urine (normalized by creatinine)” value is “increased sulfated GAG levels in urine in a dose-dependent manner”. For the same molecule, the “total GAG synthesis (dose dependence)” value in [7] (1 μM, 3 μM, FIG. 2) is on record as “stimulates, in a dose-dependent manner”. Also, in experiment [7], the “stimulation of total GAG synthesis vs control” value is “+94%”. Also, in experiment [8], the “chondroitin sulfate (CS) content” value is on record as “inhibited”, the “dermatan sulfate (DS) content” value is “inhibited” and the “heparan sulfate (HS) content” value is given as “inhibited”.
